Reference: patent publication US11661453B2 (Tesaro, Inc., priority 2017, dated 2023)

Experiments:
DLD1 BRCA2−/− cells = conditions: 300 nM for 24 or 48 hours
Description: (§1) The cells were subsequently analyzed for expression of Stimulator of Interferon Genes (STING) pathway proteins via Western blotting.

MDA-MB-436 cells = system: MDA-MB-436 cells
Description: as §1

[1] = system: MMTV-LPA1 breast (LPA-T22); assay: Tumor growth inhibition, syngeneic MMTV-LPA1 breast model; format: in vivo, mouse; conditions: niraparib orally once daily, antibody intraperitoneally twice weekly
Description: (§2) A panel of 14 syngeneic or humanized xenograft models representing BRCA-proficient (wild-type) and BRCA-deficient (mutant) cancers derived from breast, lung, ovary, skin, sarcoma, bladder and colon tumors was established. The panel included the following genetically engineered mouse tumor models: 1) KrasG12D and PTEN null bladder (BL6078), 2) TP53 null sarcoma (SA9003), 3) MMTV-LPA1 breast (LPA-T22), 4) BRCA1 mutant breast (MDA-MB-436; also referred to as MM-436), 5) APC^Min heterozygous mutant skin (SK6005), and 6) BRCA1−/−, TP53−/−, KrasG12D ovarian (BRKras) models. While the bladder syngeneic model was BRCA1 wild-type, the sarcoma model harbored BRCA1 A122E and S123X heterozygous mutations. Specifically, mice were administered treatments after tumors reached 50-150 mm^3. […] The suboptimal dose administered for specific tumor models was as follows: 35 mg/kg daily for 5 consecutive days per week (QD×5/week) for the BR1126 tumor model, 35 mg/kg (QD×5/week) for the MDA-MB-436 tumor model, 30 mg/kg for the BRKras tumor model, and 25 mg/kg daily for the SK6005 tumor model. The anti-PD-1 antibody (RMP1-14/2C4) or the anti-PD-L1 antibody (10F.9G2) was administered twice weekly intraperitoneally at 10 mg/kg dose unless otherwise noted. […] Tumor growth was monitored twice per week.

[2] = system: TP53 null sarcoma (SA9003); assay: Tumor growth inhibition, TP53 null sarcoma model; format: in vivo, mouse; conditions: niraparib orally once daily, antibody intraperitoneally twice weekly
Description: as §2

[3] = system: KrasG12D and PTEN null bladder (BL6078); assay: Tumor growth inhibition, Kras G12D and PTEN null bladder model; conditions: mouse, in vivo
Description: as §2

PARP activity = PARP activity stimulated by DNA damage caused by hydrogen peroxide, various cell lines, cited from earlier work
[4] = system: cancer cell lines that have been silenced for BRCA-1 or BRCA-2, or carry BRCA-1 or BRCA-2 mutations; conditions: cited from earlier work
[5] = system: selected Ewing's sarcoma, ALL, NSCLC and SCLC cell lines, tumor cell lines carrying homozygous inactivation of the ATM gene; conditions: cited from earlier work
normal human cells = conditions: cited from earlier work
[6] = system: MDA-MB-436, CAPAN-1, GRANTA-519, OVCAR3, HT29, DLD-1, patient derived Ewing's sarcoma and TNBC xenograft models; conditions: xenograft models in mice; cited from earlier work
[7] = system: non-small-cell lung cancer, melanoma, and renal-cell cancer; conditions: Phase I clinical trial; cited from earlier work

Row | Compound | mRNA expression of type-I interferon (IFNB1 or IFNA1) (DLD1 BRCA2−/− cells) | mRNA expression of type-I interferon (IFNB1) (MDA-MB-436 cells; 300 nM for 24 or 48 hours) | expression of STING pathway proteins (p-STING, STING, p-TBK1, TBK1, p-NF-κB p65, NF-κB p65) (MDA-MB-436 cells; 1 μM for 48 hours, Western blotting) | tumor growth inhibition (TGI) [1] | tumor growth inhibition (TGI) [2] | response to monotherapy [3] | IC50 (PARP activity; read-out: IC50 of PARP activity in cell lines) | IC90 (PARP activity; read-out: inhibitory concentration at 90% of control (IC90) of PARP activity in cell lines) | consequence on cell cycle ([4]; BRCA-defective cells) | anti-proliferative activity ([4]; compared to wild type counterparts) | cytotoxicity [5] | activity on normal human cells (normal human cells) | antitumor activity in vivo [6] | clinical response [7]
1 | NC(=O)c1cccc2cn(-c3ccc([C@@H]4CCCNC4)cc3)nc12 [Niraparib, (3 S)-3-[4-{7-(aminocarbonyl)-2H-indazol-2-yl}phenyl]piperidine] | detected | detected | expression of STING pathway proteins | 45% | 1% | neither responsive | ~4 nM | ~50 nM | cell cycle arrest in G2/M followed by apoptosis | selective anti-proliferative activity | selectively cytotoxic | weak activity | strong antitumor activity | –
2 | nivolumab: anti-PD-1 monoclonal antibody (Human IgG4) | – | – | – | – | – | – | – | – | – | – | – | – | – | complete or partial responses
